Laboratory results taken from patent US11021472B2, “Use of compounds comprising two or more hydrophobic domains and a hydrophilic domain comprising PEG moieties for stabilization of a cell” (Roche Diagnostics Operations, Inc., priority 2013, dated 2021).
Several values for one entry are separate records, joined by “and”; a condition that tells them apart may be missing. Equal entries are not always repeated.

Columns and labels:
[1] = system: Hela; experiment: Labelling (staining) of cells with labelled molecules; type: cell-based
Text: (§1) As shown in the examples, a compound for use according to the invention, wherein the compound comprises a label moiety, is contacted with a cell. As labelling is preferably done with viable or potentially viable cells, the cells are typically present in an aqueous solution, which is preferably buffered and/or contains nutrients, e.g. the cells are suspended in PBS. The labeled compound for use according to the invention may be added to the cells, e.g. in form of a solution, e.g. as aqueous solution by methods known in the art, as pipetting.

[2] = system: WBCs; experiment: as above; type: cell-based
Text: as §1

[3] = system: Epithelial cells; experiment: as above; type: cell-based
Text: as §1

[4] = system: CHO; experiment: as above; type: cell-based
Text: as §1

[5] = system: MDA-MB468; experiment: as above; type: cell-based
Text: as §1

[6] = system: Jurkats; experiment: as above; type: cell-based
Text: as §1

[7] = system: COS 7; experiment: as above; type: cell-based
Text: as §1

[8] = system: U937; experiment: as above; type: cell-based
Text: as §1

[9] = system: NIH 3T3; experiment: as above; type: cell-based
Text: as §1

[10] = system: WBC; experiment: WBC recovery rate after centrifugation (stabilization of cells); type: cell-based, human; settings: Centrifugation 10 min, 300×g
Description: (§2) Centrifugation characteristics: 10 min, 300×g.
as §2
The respective left, middle and right columns per assay represent different Experimenters 1, 2 and 3. […] Centrifugation characteristics: 10 min, 300×g. Molecule: Cholesteryl-TEG-Cholesteryl-TEG-(SpacerC18)7-Fluos-Biotin-TEG.
(§3) Following molecules were tested: 1234: 5′-(Cholesteryl-TEG)2-Spacer C18-dT-Biotin-TEG-3′; 1248: 3′-(Cholesteryl-TEG)2-PEG2000-Fluos-Biotin-TEG-5′ INVERS; 1254: 3′-(Cholesteryl-TEG)2-SpacerC18-Fluos-Biotin-TEG-5′ INVERS; 1255: 3′-(Myristic acid)2-PEG2000-dT-Biotin-TEG-5′ INVERS. […] Centrifugation characteristics: 20 min, 300×g. Respective left column: 10 min incubation with molecule. Respective middle column: 1 h min incubation with molecule. Respective right column: 2 h incubation with molecule.
Following molecules were tested: 1255: 3′-(Myristic acid)2-PEG2000-dT-Biotin-TEG-5′ INVERS; 1234: 5′-(Cholesteryl-TEG)2-Spacer C18-dT-Biotin-TEG-3′; 1248: 3′-(Cholesteryl-TEG)2-PEG2000-Fluos-Biotin-TEG-5′ INVERS; 1254: 3′-(Cholesteryl-TEG)2-SpacerC18-Fluos-Biotin-TEG-5′ INVERS. […] Centrifugation characteristics: 20 min, 500×g. Respective left column: 10 min incubation with molecule. Respective middle column: 1 h min incubation with molecule. Respective right column: 3 h incubation with molecule.
as §3, with “tested: 1255: 3′-(Myristic acid)2-PEG2000-dT-Biotin-TEG-5′ INVERS;” for “tested:”, “3′-(Cholesteryl-TEG)2-SpacerC18-Fluos-Biotin-TEG-5′” for “3′-(Cholesteryl-TEG)2-SpacerC18-Fluos-Biotin-TEG-5′ INVERS; 1255: 3′-(Myristic acid)2-PEG2000-dT-Biotin-TEG-5′”, “1000×g.” for “300×g.”
Stabilization is typically determined on a population of cells, e.g. 2, 10, 100 or more cells, and the respective mean viability of the cell populations are compared. […] Viability may be determined by determining cell morphology, cell viability and/or cell recovery. Methods for determining cell morphology, cell viability and cell recovery are known in the art. […] For determining cell morphology, visual inspection by microscopy may be performed. For determining cell viability, a cell viability test using WST-1 proliferation kit (RAS) may be performed.

[11] = system: WBCs; experiment: Recovery rate of cells after immobilization on streptavidin (SA) plate; type: cell-based; settings: WBCs, 100 nmol/10e6 cells
Description: X=hydrophobic moiety, […]=fluorescein In the following experiment, the recovery rate of cells was determined.

[12] = system: WBC; settings: Example 5 B; centrifugation 10 min, 300×g

CCCCCCCCCCCCCCCC(=O)OC[C@H](COP(=O)(O)OCCNC(=O)CCc1ccc2n1[B-](F)(F)[N+]1=C(C)C=C(C)C1=C2)OC(=O)CCCCCCCCCCCCCCC.CCN(CC)CC [Phosphatidylethanolamine, N-(4,4-difluoro-5,7-dimethyl-4-bora-3a,4a-diaza-s-indacene-3-propionyl)-1,2-dihexadecanoyl-sn-glycero-3-phosphoethanolamine, triethylammonium salt]
staining of cells by labelled molecule [1]: x/✓ very weak

CCCCCCCCCCCCC/C=C/[C@@H](O)[C@H](COP(=O)([O-])OCC[N+](C)(C)C)NC(=O)CCCCc1ccc2n1[B-](F)(F)[N+]1=C(C)C=C(C)C1=C2 [Sphingomyelin, N-(4,4-difluoro-5,7-dimethyl-4-bora-3a,4a-diaza-s-indacene-3-pentanoyl)sphingosyl phosphocholine]
staining of cells by labelled molecule [2]: (x)- very bad | staining of cells by labelled molecule [3]: ✓ | staining of cells by labelled molecule [4]: x very weak | staining of cells by labelled molecule [1]: ✓

CCCCC/C=C\C/C=C\CCCCCCCCN1C(=CC=CC2=[N+](CCCCCCCC/C=C\C/C=C\CCCCC)c3ccccc3C2(C)C)C(C)(C)c2ccccc21.[O-][Cl+3]([O-])([O-])[O-] [Linol, 1,1′-dilinoleyl-3,3,3′,3′-tetramethylindocarbocyanine perchlorate]
staining of cells by labelled molecule [2]: 20-50 ms) ✓ | staining of cells by labelled molecule [3]: ✓ | staining of cells by labelled molecule [5]: ✓ | staining of cells by labelled molecule [6]: ✓ | staining of cells by labelled molecule [7]: ✓ | staining of cells by labelled molecule [4]: ✓ | staining of cells by labelled molecule [8]: ✓ | staining of cells by labelled molecule [1]: ✓ | staining of cells by labelled molecule [9]: ✓

5′-CholesterylTEG-CholesterylTEG-PEG2000-Fluos-3′ [BMO 29.891133]
staining of cells by labelled molecule [2]: 50-200 ms) ✓ | staining of cells by labelled molecule [3]: ✓ | staining of cells by labelled molecule [5]: ✓ | staining of cells by labelled molecule [6]: ✓ | staining of cells by labelled molecule [7]: ✓ | staining of cells by labelled molecule [4]: ✓ | staining of cells by labelled molecule [8]: ✓ | staining of cells by labelled molecule [1]: ✓ | staining of cells by labelled molecule [9]: ✓

CCCCCCCCCCCCCCCCCCN1C(=CC=CC2=[N+](CCCCCCCCCCCCCCCCCC)c3ccccc3C2(C)C)C(C)(C)c2ccccc21.[O-][Cl+3]([O-])([O-])[O-] [1,1′-Dioctadecyl-3,3,3′,3′-tetramethylindocarbocyanin perchlorate]
staining of cells by labelled molecule [2]: ✓ not all | staining of cells by labelled molecule [3]: ✓ | staining of cells by labelled molecule [5]: ✓ | staining of cells by labelled molecule [6]: ✓ | staining of cells by labelled molecule [7]: ✓ | staining of cells by labelled molecule [4]: ✓ | staining of cells by labelled molecule [8]: ✓ | staining of cells by labelled molecule [1]: ✓ | staining of cells by labelled molecule [9]: ✓*

CCCCCCCCCCCCCCCCCCCCCC[N+]1=C(/C=C/C=C2/N(CCCCCCCCCCCCCC)c3ccccc3C2(C)C)C(C)(C)c2ccccc21.[I-] [PKH26]
staining of cells by labelled molecule [2]: not stained) ✓ | staining of cells by labelled molecule [3]: ✓ not all | staining of cells by labelled molecule [5]: ✓ | staining of cells by labelled molecule [6]: ✓ | staining of cells by labelled molecule [7]: ✓ | staining of cells by labelled molecule [4]: ✓ | staining of cells by labelled molecule [8]: ✓ | staining of cells by labelled molecule [1]: ✓* | staining of cells by labelled molecule [9]: ✓

Biotin-PEG-Lys-(C18)2
WBC recovery rate after centrifugation: dependence on molecule concentration [10]: The higher the molecule concentration, the higher the cell recovery rate after centrifugation | Recovery Rate ([11]; listed as Biotin-PEG-Lysin-(C18)2): 83.9% and 75.0% and 66.0% | Recovery Rate ([11]; may be to due 1.5-2 h exposure of plate): 33.0% | time within which cell immobilization is enabled [12]: ≤ 3.5 h
